The subject of one data set is HuH7. In kind it is cell-based, human. To be noted: 48 h. An excerpt: (§1) Liver cancer cells (HuH7, HepG2, and H22) and human liver cells (HL-7702) were obtained from the Cell Bank of the Chinese Academy of Sciences (Shanghai, China). Fresh L. japonica was acquired from the South China Agricultural University (Guangzhou, China) and identified by Professor C. Wang (South China Agricultural University, Guangzhou, China). The annexin V-FITC/PI staining assay kit and propidium iodide (PI) reagents were supplied by Beyotime (Shanghai, China). Dulbecco’s modified Eagle medium (DMEM), fetal bovine serum (FBS), and penicillin-streptomycin (PS) were purchased from Gibco BRL (Life Technologies, Grand Island, NY, USA). The antibodies used in the current study were acquired from Cell Signaling Technology, Inc. (Manchester, NH, USA). Cell lines were grown in specific medium supplemented with 10% FBS. Cells were grown in a humidified atmosphere with 5% CO2 in incubators maintained at 37 °C. Balb/c mice (6–8 weeks old, 20 ± 2 g) were acquired from the Guangdong Experimental Animal Center. Ab MTT assay was used to detect the cytotoxicity activity of LJPs in vitro [42]. Briefly, 5 × 10^3 cells/well were seeded in 96-well plates, and varying concentrations of LJP were added. After 48 h, the MTT solution (5 mg/mL) was added for an additional 4 h. The absorbance was measured at 570 nm using a microplate reader (Bio-Rad; Hercules, CA, USA) after 100 μL of DMSO was added. The IC^50 values were determined by the non-linear multipurpose curve-fitting program.

Another data set has as its system HepG2. In kind it is cell-based, human. The conditions noted are these: 48 h.
Text: as §1

The test system of a further data set is H22. In kind it is cell-based. To be noted: 48 h.
Text: as §1

A short description of the next data set: in vitro. In kind it is cell-based. The conditions noted are these: human.
Text: as §1, with “Briefly, 5 × 10^3 cells/well were seeded in 96-well plates, and varying concentrations of LJP were added. After 48 h, the MTT solution (5 mg/mL) was added for an additional 4 h.” left out

Residues, ends and D or L forms follow the SMILES beside them.

The term IC50 denotes the point on the concentration scale where inhibition reaches its midpoint. Read a low IC50 as higher potency. As to `CC(C)[C@H](NC(=O)[C@H](Cc1ccc(O)cc1)NC(=O)[C@@H](NC(=O)[C@H](Cc1c[nH]cn1)NC(=O)[C@H](CO)NC(=O)[C@@H](N)Cc1ccccc1)[C@@H](C)O)C(=O)O` [LJP-8] (H-FSHTYV-OH), the IC50 in the data set with HuH7 stood at 440 ± 40 µM; in the data set on HepG2, 630 ± 50 µM; in the data set on H22, 760 ± 80 µM.

With `CC(C)C[C@H](N)C(=O)N[C@@H](Cc1c[nH]c2ccccc12)C(=O)N[C@@H](CCC(=O)O)C(=O)N[C@@H](Cc1c[nH]cn1)C(=O)N[C@@H](CO)C(=O)N[C@@H](Cc1c[nH]cn1)C(=O)O` [LJP-2] (H-LWEHSH-OH), the IC50 in the data set on HuH7 is 2250 ± 220 µM; in the data set with HepG2 it was 1710 ± 130 µM; in the data set on H22, 620 ± 50 µM.

With `NCCCC[C@H](NC(=O)[C@@H](N)Cc1ccccc1)C(=O)N[C@@H](CCC(=O)O)C(=O)N[C@@H](Cc1c[nH]cn1)C(=O)NCC(=O)N[C@@H](Cc1ccc(O)cc1)C(=O)O` [LJP-6] (H-FKEHGY-OH), the IC50 in the data set on HuH7 was over 4000 µM; with HepG2 it was 3060 ± 310 µM; in the data set with H22 it was over 4000 µM.

With `C[C@@H](O)[C@H](NC(=O)[C@H](CO)NC(=O)[C@@H](N)Cc1ccccc1)C(=O)N[C@@H](Cc1c[nH]cn1)C(=O)NCC(=O)NCC(=O)O` [LJP-5] (H-FSTHGG-OH), the 50% inhibitory concentration (IC50) in the data set with HuH7 turned out to be 2440 ± 220 µM; in the data set on HepG2, 2780 ± 260 µM; in the data set on H22, 1490 ± 130 µM.

Turning to `C[C@H](NC(=O)[C@H](Cc1c[nH]c2ccccc12)NC(=O)[C@H](CO)NC(=O)[C@H](Cc1ccc(O)cc1)NC(=O)CNC(=O)[C@H](C)NC(=O)[C@@H](N)Cc1c[nH]cn1)C(=O)O` [LJP-7] (H-HAGYSWA-OH), the IC50 with HuH7 was 2530 ± 240 µM; with HepG2 it was 1660 ± 110 µM; in the data set on H22, 1440 ± 120 µM.

With `N=C(N)NCCC[C@H](NC(=O)[C@H](Cc1c[nH]cn1)NC(=O)[C@H](CO)NC(=O)[C@@H](N)Cc1ccccc1)C(=O)NCC(=O)N[C@@H](Cc1c[nH]cn1)C(=O)O` [LJP-3] (H-FSHRGH-OH), the values for the IC50 in the data set with HuH7, with HepG2 and in the data set on H22 were 1420 ± 120 µM, over 4000 µM and 1700 ± 150 µM, respectively.

`N[C@@H](Cc1ccccc1)C(=O)N[C@@H](CCC(=O)O)C(=O)N[C@@H](Cc1c[nH]cn1)C(=O)N[C@@H](CO)C(=O)NCC(=O)O` [LJP-9] (H-FEHSG-OH): the IC50 was found to be 530 ± 50 µM in the data set on HuH7, 690 ± 80 µM in the data set with HepG2 and 510 ± 70 µM in the data set on H22.

As for `N[C@@H](Cc1ccc(O)cc1)C(=O)N[C@@H](CCC(=O)O)C(=O)N[C@@H](Cc1c[nH]cn1)C(=O)N[C@@H](CO)C(=O)N[C@@H](Cc1c[nH]cn1)C(=O)NCC(=O)O` [LJP-11] (H-YEHSHG-OH), the IC50 in the data set with HuH7 came out at 490 ± 50 µM; in the data set with HepG2, 610 ± 70 µM; with H22 it was 700 ± 70 µM.

For `C[C@@H](O)[C@H](N)C(=O)N[C@@H](Cc1ccccc1)C(=O)N[C@@H](CCCCN)C(=O)N[C@@H](Cc1c[nH]cn1)C(=O)NCC(=O)O` [LJP-12] (H-TFKHG-OH), the IC50 amounted to 410 ± 40 µM with HuH7, 600 ± 80 µM in the data set with HepG2 and 720 ± 50 µM in the data set on H22.

Regarding `CC(C)C[C@H](NC(=O)[C@H](Cc1c[nH]cn1)NC(=O)[C@H](Cc1ccccc1)NC(=O)CNC(=O)[C@@H](N)CCC(=O)O)C(=O)O` [LJP-1] (H-EGFHL-OH), the results for the 50% inhibitory concentration (IC50) with HuH7, in the data set with HepG2 and with H22 were 480 ± 50 µM, 450 ± 50 µM and 360 ± 30 µM, respectively. For the same compound, half-maximal inhibition in the data set “in vitro” (IC50 at 48 h) required 7760 ± 710 µM.

On to `C[C@H](NC(=O)[C@@H](N)Cc1c[nH]cn1)C(=O)N[C@@H](CO)C(=O)N[C@@H](Cc1c[nH]c2ccccc12)C(=O)N[C@@H](CCC(=O)O)C(=O)N[C@@H](Cc1c[nH]cn1)C(=O)O` [LJP-10] (H-HASWEH-OH), for which the 50% inhibitory concentration (IC50) in the data set with HuH7 stood at 3520 ± 350 µM; in the data set on HepG2, 2690 ± 220 µM; in the data set on H22 it was 3530 ± 340 µM.

On to `N[C@@H](CCC(=O)O)C(=O)NCC(=O)N[C@@H](Cc1c[nH]cn1)C(=O)NCC(=O)N[C@@H](Cc1ccccc1)C(=O)O` [LJP-4] (H-EGHGF-OH), for which the figures for the IC50 in the data set with HuH7, in the data set on HepG2 and with H22 were 620 ± 70 µM, 650 ± 70 µM and 680 ± 70 µM, respectively.

These data come from PMC9698768, “Laminaria japonica Peptides Suppress Liver Cancer by Inducing Apoptosis: Possible Signaling Pathways and Mechanism” (Marine Drugs, 2022).
